± gives the expanded uncertainty stated by the source.
Conditions: 101.33 kPa, Liquid, Vibrating tube method

| Compound | mass density (303.15 K) [kg/m3] | mass density (308.15 K) [kg/m3] | mass density (313.15 K) [kg/m3] | mass density (318.15 K) [kg/m3] | mass density (323.15 K) [kg/m3] | mass density (328.15 K) [kg/m3] | mass density (333.15 K) [kg/m3] | mass density (338.15 K) [kg/m3] | mass density (343.15 K) [kg/m3] | mass density (348.15 K) [kg/m3] | mass density (353.15 K) [kg/m3] |
| --- | --- | --- | --- | --- | --- | --- | --- | --- | --- | --- | --- |
| Cn1cc[n+](CCO)c1.O=S(=O)([N-]S(=O)(=O)C(F)(F)F)C(F)(F)F | 1589.4 ± 2.3 | 1584.2 ± 2.3 | 1578.9 ± 2.3 | 1574.2 ± 2.3 | 1568.7 ± 2.3 | 1563.7 ± 2.3 | 1558.7 ± 2.3 | 1553.7 ± 2.2 | 1548.8 ± 2.2 | 1544 ± 2.2 | 1538.6 ± 2.2 |
| Cn1cc[n+](CCO)c1.F[P-](F)(F)(F)(F)F [3-(2-hydroxyethyl)-1-methylimidazolium hexafluorophosphate] | 1555.6 ± 2.2 | 1550.8 ± 2.2 | 1546 ± 2.2 | 1541.1 ± 2.2 | 1536.4 ± 2.2 | 1531.8 ± 2.2 | 1527.2 ± 2.2 | 1522.6 ± 2.2 | 1518.2 ± 2.2 | 1513.6 ± 2.2 | 1508.7 ± 2.1 |
| Cn1cc[n+](CCO)c1.O=S(=O)([O-])C(F)(F)F | 1444 ± 2 |  | 1436.1 ± 2 |  | 1428 ± 2 |  | 1420.5 ± 1.9 |  | 1410.8 ± 1.9 |  | 1400.5 ± 1.9 |
